In general, EC50 refers to the concentration that produces a half-maximal response.

Structures can show the parent of a compound that is named as a salt. Where two headings read alike, the source gives them in different places.

Assay [1] addresses T1, hGPR40 (Homo sapiens, UniProt O14842). The experiment in a line: FDSS-based intracellular calcium assay in cell lines expressing GPR40. Also noted: 3xFLAG; expressed in transfected cells. Particulars: intracellular Ca2+ response, cells expressing GPR40, FDSS reader. How it is done: FDSS-Based Intracellular Calcium Assay
Cell lines expressing GPR40 are generated using the pDEST-3×FLAG gene expression system and are cultured in culture medium comprising the following components: F12 (Gibco #11765), 10% lipid deprived fetal bovine serum, 250 μg/ml zeocin and 500 μg/ml G418. To conduct the fluorescent imaging plate reader (FLIPR)-based calcium flux assay to measure intracellular Ca^2+ response, cells expressing GPR40 are plated on 384 well plates (BD Biocoat #356697) at a density of 20,000 cells/20 μL medium per well in phenol red and serum-free DMEM (Gibco #21063-029) and incubated overnight. Using BD kit #s 80500-310 or -301, the cells are incubated with 20 μL per well of Hank's buffered salt solution with 1.7 mM probenecid and Fluo-3 at 37° C. for 30 min. Compounds are dissolved in DMSO and diluted to desired concentrations with assay buffer and added to the cells as 3× solution (20 μL per well). Run fluorescence/luminescence reader FDSS (Hamamatsu) to read intracellular Ca^2+ response.
For orientation: A change in cytosolic calcium serves as a functional read-out for many receptors and channels.

Assay [2] has as its target T1, hGPR40.

T1 sequence (O14842 whole entry): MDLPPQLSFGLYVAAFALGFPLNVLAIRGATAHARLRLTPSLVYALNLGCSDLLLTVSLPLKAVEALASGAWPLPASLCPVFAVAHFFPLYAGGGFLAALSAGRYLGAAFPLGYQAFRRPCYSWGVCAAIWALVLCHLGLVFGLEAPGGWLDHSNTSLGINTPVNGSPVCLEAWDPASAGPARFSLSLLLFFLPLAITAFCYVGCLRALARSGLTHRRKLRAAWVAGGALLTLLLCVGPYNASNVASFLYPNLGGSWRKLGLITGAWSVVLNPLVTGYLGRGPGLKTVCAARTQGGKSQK

Turning to `COCCCO[C@H]1CN(c2ccc(OC3CCN(c4cc(OC)ncc4Cl)CC3CC(C)C)cc2)[C@@H](CC(=O)O)[C@@H]1C` (single isomer, unassigned) [Example 19, Isomer 1], on hGPR40 [1], the EC50 was 1500 nM.

Turning to `COCCCO[C@H]1CN(c2ccc(OC3CCN(c4cc(OC)ncc4Cl)CC3CC(C)C)cc2)[C@@H](CC(=O)O)[C@@H]1C` (single isomer, unassigned) [Example 19, Isomer 2], on hGPR40 [1], the EC50 was 230 nM.

As for `CCOc1ccc(F)c(N2CCC(Oc3ccc(N4C[C@H](OCCCOC)[C@@H](C)[C@@H]4CC(=O)O)cc3)C(C)C2)c1` (single isomer, unassigned) [Example 14, HCl], the 50% effective concentration (EC50) turned out to be 51 nM on hGPR40 [1] and 7 nM at hGPR40 [2].

Consider `COCCCO[C@H]1CN(c2cnc(O[C@@H]3CCN(c4cc(OC)ncc4Cl)C[C@H]3C)nc2)[C@@H](CC(=O)O)[C@@H]1C` [Example 33, 2-((2S,3 S,4R)-1-(2-(((3R,4R)-1-(5-Chloro-2-methoxypyridin-4-yl)-3-methylpiperidin-4-yl)oxy)pyrimidin-5-yl)-4-(3-methoxypropoxy)-3-methylpyrrolidin-2-yl)acetic acid], for which the EC50 at hGPR40 [1] is 101 nM.

Consider `CCOc1ccc(F)c(N2CCC(Oc3ccc(N4C[C@H](OCCCOC)[C@@H](C)[C@@H]4CC(=O)O)cc3F)C(C)C2)c1` (single isomer, unassigned) [Example 20], for which the EC50 on hGPR40 [1] turned out to be 110 nM.

Turning to `COCCCO[C@H]1CN(c2ccc(OC3CCN(c4cc(OC)ncc4Cl)CC3C)c(F)c2)[C@@H](CC(=O)O)[C@@H]1C` (single isomer, unassigned) [Example 7], on hGPR40 [1], the EC50 amounted to 97 nM.

As to `COCCCO[C@H]1CN(c2ccc(O[C@@H]3CCN(c4cc(OC)ncc4Cl)C[C@H]3C)cc2)[C@@H](CC(=O)O)[C@@H]1C` (single isomer, unassigned) [Example 1], the EC50 stood at 56 nM at hGPR40 [1] and 5 nM on hGPR40 [2].

Take `COCCCO[C@H]1CN(c2ccc(OC3CCN(c4cc(OC)ncc4Cl)CC3CC(C)C)nc2)[C@@H](CC(=O)O)[C@@H]1C` (single isomer, unassigned) [Example 18, Isomer 1]: on hGPR40 [1], the EC50 was 1300 nM.

On to `CCOc1ccc(F)c(N2CCC(Oc3ccc(N4C[C@H](CCCOC)C[C@@H]4CC(=O)O)cc3)CC2)c1` [Example 10, 2-((2R,4R)-1-(4-((1-(5-Ethoxy-2-fluorophenyl)piperidin-4-yl)oxy)phenyl)-4-(3-methoxypropyl)pyrrolidin-2-yl)acetic acid, TFA], for which the 50% effective concentration (EC50) on hGPR40 [1] worked out at 380 nM; on hGPR40 [2], 47 nM.

With `COCCCO[C@H]1CN(c2cnc(OC3CCN(c4cc(OC)ncc4Cl)CC3C)c(C(F)(F)F)c2)[C@@H](CC(=O)O)[C@@H]1C` (single isomer, unassigned) [Example 24], the EC50 at hGPR40 [1] was determined as 65 nM.

Take `COCCOCO[C@H]1CN(c2ccc(OC3CCN(c4cc(OC)ncc4Cl)CC3C)cc2)[C@@H](CC(=O)O)[C@@H]1C` (single isomer, unassigned) [Example 28]: the EC50 at hGPR40 [1] stood at 180 nM.

For `CCc1cc(N2CCC(Oc3ccc(N4C[C@H](OCCCOC)[C@@H](C)[C@@H]4CC(=O)O)cc3)CC2)c(Cl)cn1` [Example 8, 2-((2S,3S,4R)-1-(4-((1-(5-Chloro-2-ethylpyridin-4-yl)piperidin-4-yl)oxy)phenyl)-4-(3-methoxypropoxy)-3-methylpyrrolidin-2-yl)acetic acid, HCl], the EC50 on hGPR40 [1] is 1100 nM.

Consider `COCCCO[C@H]1CN(c2cnc(OC3CCN(c4cc(OC)ncc4Cl)CC3C)c(F)c2)[C@@H](CC(=O)O)[C@@H]1C` (single isomer, unassigned) [Example 22], for which the concentration giving a half-maximal response (EC50) on hGPR40 [1] stood at 89 nM.

As for “2-((2S,3S,4R)-1-(4-(((3,4-trans)-1-(5-Chloro-2-methoxypyridin-4-yl)-3-methylpiperidin-4-yl)oxy)phenyl)-4-(3-methoxy-2-methylpropoxy)-3-methylpyrrolidin-2-yl)acetic acid [Example 21, Isomer 1]”, at hGPR40 [1], the EC50 turned out to be 120 nM.

Take `CCOc1ccc(F)c(N2CCC(Oc3ccc(N4C[C@H](OCCCOC)[C@@H](C)[C@@H]4CC(=O)O)cn3)CC2)c1` [Example 5, 2-((2S,3S,4R)-1-(6-((1-(5-Ethoxy-2-fluorophenyl)piperidin-4-yl)oxy)pyridin-3-yl)-4-(3-methoxypropoxy)-3-methylpyrrolidin-2-yl)acetic acid]: at hGPR40 [1], the EC50 came to 170 nM.

`COCCCO[C@H]1CN(c2cnc(OC3CCN(c4cc(OC)ncc4Cl)CC3C)c(C)c2)[C@@H](CC(=O)O)[C@@H]1C` (single isomer, unassigned) [Example 25]: the EC50 at hGPR40 [1] worked out at 300 nM.

Consider `COCCCO[C@H]1CN(c2cnc(OC3CCN(c4cc(OC)ncc4Cl)CC3)c(C(F)(F)F)c2)[C@@H](CC(=O)O)[C@@H]1C` [Example 30, 2-((2S,3S,4R)-1-(6-((1-(5-Chloro-2-methoxypyridin-4-yl)piperidin-4-yl)oxy)-5-(trifluoromethyl)pyridin-3-yl)-4-(3-methoxypropoxy)-3-methylpyrrolidin-2-yl) acetic acid], for which, at hGPR40 [1], the EC50 turned out to be 61 nM.

As to `CCOc1ccc(F)c(N2CCC(Oc3ccc(N4C[C@H](OCCOC)C[C@@H]4CC(=O)O)cc3)CC2)c1` [Example 13, 2-((2R,4R)-1-(4-((1-(5-Ethoxy-2-fluorophenyl)piperidin-4-yl)oxy)phenyl)-4-(2-methoxyethoxy)pyrrolidin-2-yl)acetic acid, TFA], the EC50 at hGPR40 [1] amounted to 1000 nM.

“2-((2S,3S,4R)-1-(4-(((3,4-trans)-1-(5-Chloro-2-methoxypyridin-4-yl)-3-methylpiperidin-4-yl)oxy)phenyl)-4-(3-methoxy-2-methylpropoxy)-3-methylpyrrolidin-2-yl)acetic acid [Example 21, Isomer 2]”: at hGPR40 [1], the EC50 worked out at 100 nM.

`COCCCO[C@H]1CN(c2ccc(OC3CCN(c4cc(OC)ncc4Cl)CC3)cc2)[C@@H](CC(=O)O)[C@@H]1C` [Example 4, 2-((2S,3S,4R)-1-(4-((1-(5-Chloro-2-methoxypyridin-4-yl)piperidin-4-yl)oxy)phenyl)-4-(3-methoxypropoxy)-3-methylpyrrolidin-2-yl)acetic acid]: the EC50 is 73 nM at hGPR40 [1] and 13 nM at hGPR40 [2].

On to `COCCCO[C@H]1CN(c2ccc(OC3CCN(c4cc(OC)ncc4Cl)CC3C)cc2F)[C@@H](CC(=O)O)[C@@H]1C` (single isomer, unassigned) [Example 26], for which the EC50 on hGPR40 [1] was 110 nM.

For `COCCCO[C@H]1CN(c2ccc(OC3CCN(c4cc(OC)ncc4Cl)CC3C)nc2)[C@@H](CC(=O)O)[C@@H]1C` (stereo partly drawn) [Example 2, 2-((2S,3S,4R)-1-(6-(((3,4-trans)-1-(5-Chloro-2-methoxypyridin-4-yl)-3-methylpiperidin-4-yl)oxy)pyridin-3-yl)-4-(3-methoxypropoxy)-3-methylpyrrolidin-2-yl)acetic acid, HCl], the results for the EC50 at hGPR40 [1] and on hGPR40 [2] were 180 nM and 27 nM, respectively.

On to `CCCCOc1cc(N2C[C@H](OCCCOC)[C@@H](C)[C@@H]2CC(=O)O)cnc1OC1CCN(c2cc(OC)ncc2Cl)CC1C` (single isomer, unassigned) [Example 23, TFA], for which the EC50 at hGPR40 [1] was determined as 110 nM.

With `COCCCO[C@H]1CN(c2ccc(OC3CCN(c4cc(OC)ncc4Cl)CC3CC(C)C)nc2)[C@@H](CC(=O)O)[C@@H]1C` (single isomer, unassigned) [Example 18, Isomer 2], the EC50 on hGPR40 [1] was 290 nM.

For the compound `CCOc1ccc(F)c(N2CCC(Oc3ccc(N4C[C@H](OCCCOC)[C@@H](C)[C@@H]4CC(=O)O)cn3)C(C)C2)c1` (single isomer, unassigned) [Example 9, HCl], the EC50 at hGPR40 [1] was found to be 170 nM; at hGPR40 [2], 35 nM.

As to `COCCCO[C@H]1CN(c2ccc(OC3CCN(c4cc(OC)ncc4Cl)CC3C)cc2F)[C@H](CC(=O)O)[C@@H]1C` (single isomer, unassigned) [Example 27], the EC50 at hGPR40 [1] was found to be 2000 nM.

`CCOc1ccc(F)c(N2CCC(Oc3ccc(N4C[C@H](OCCCOC)[C@@H](C)[C@@H]4CC(=O)O)cc3)CC2)c1` [Example 3, 2-((2S,3S,4R)-1-(4-((1-(5-Ethoxy-2-fluorophenyl)piperidin-4-yl)oxy)phenyl)-4-(3-methoxypropoxy)-3-methylpyrrolidin-2-yl)acetic acid, HCl]: the EC50 at hGPR40 [1] stood at 200 nM.

Regarding `CCOc1ccc(F)c(N2CCC(Oc3ccc(N4C[C@H](OCCCS(C)(=O)=O)[C@@H](C)[C@@H]4CC(=O)O)cc3)CC2)c1` [Example 16, 2-((2S,3 S,4R)-1-(4-((1-(5-Ethoxy-2-fluorophenyl)piperidin-4-yl)oxy)phenyl)-3-methyl-4-(3-(methylsulfonyl)propoxy)pyrrolidin-2-yl)acetic acid], the EC50 at hGPR40 [1] came out at 980 nM.

Take `COc1cc(N2CCC(Oc3ccc(N4C[C@H](OCCCC#N)[C@@H](C)[C@@H]4CC(=O)O)cc3)C(C)C2)c(Cl)cn1` (stereo partly drawn) [Example 32, 2-((2S,3S,4R)-1-(4-(((3,4-trans)-1-(5-Chloro-2-methoxypyridin-4-yl)-3-methylpiperidin-4-yl)oxy)phenyl)-4-(3-cyanopropoxy)-3-methylpyrrolidin-2-yl)acetic acid]: the EC50 on hGPR40 [1] amounted to 190 nM.

Turning to `COCCCO[C@H]1CN(c2ccc(OC3CCN(c4cc(OC)ncc4Cl)CC3)nc2)[C@@H](CC(=O)O)[C@@H]1C` [Example 6, 2-((2S,3S,4R)-1-(6-((1-(5-Chloro-2-methoxypyridin-4-yl)piperidin-4-yl)oxy)pyridin-3-yl)-4-(3-methoxypropoxy)-3-methylpyrrolidin-2-yl)acetic acid], the EC50 at hGPR40 [1] stood at 200 nM; at hGPR40 [2], 19 nM.
